Assay results: patent US12172995B2, “Substituted indole and indazole compounds” (BRISTOL-MYERS SQUIBB COMPANY, priority 2018, dated 2024)

Tests used:
Type in all cases: cell-based
human TLR7 = target: T1, human TLR7 (Homo sapiens, UniProt Q9NYK1); experiment: TLR7 inhibition reporter assay (HEK-Blue SEAP); conditions: HEK-Blue cells overexpressing human TLR7, stimulated with gardiquimod 7.5 μM, 22 hour incubation
T1 construct: host or cells: HEK-Blue cells
T1 sequence (Q9NYK1 27-1049): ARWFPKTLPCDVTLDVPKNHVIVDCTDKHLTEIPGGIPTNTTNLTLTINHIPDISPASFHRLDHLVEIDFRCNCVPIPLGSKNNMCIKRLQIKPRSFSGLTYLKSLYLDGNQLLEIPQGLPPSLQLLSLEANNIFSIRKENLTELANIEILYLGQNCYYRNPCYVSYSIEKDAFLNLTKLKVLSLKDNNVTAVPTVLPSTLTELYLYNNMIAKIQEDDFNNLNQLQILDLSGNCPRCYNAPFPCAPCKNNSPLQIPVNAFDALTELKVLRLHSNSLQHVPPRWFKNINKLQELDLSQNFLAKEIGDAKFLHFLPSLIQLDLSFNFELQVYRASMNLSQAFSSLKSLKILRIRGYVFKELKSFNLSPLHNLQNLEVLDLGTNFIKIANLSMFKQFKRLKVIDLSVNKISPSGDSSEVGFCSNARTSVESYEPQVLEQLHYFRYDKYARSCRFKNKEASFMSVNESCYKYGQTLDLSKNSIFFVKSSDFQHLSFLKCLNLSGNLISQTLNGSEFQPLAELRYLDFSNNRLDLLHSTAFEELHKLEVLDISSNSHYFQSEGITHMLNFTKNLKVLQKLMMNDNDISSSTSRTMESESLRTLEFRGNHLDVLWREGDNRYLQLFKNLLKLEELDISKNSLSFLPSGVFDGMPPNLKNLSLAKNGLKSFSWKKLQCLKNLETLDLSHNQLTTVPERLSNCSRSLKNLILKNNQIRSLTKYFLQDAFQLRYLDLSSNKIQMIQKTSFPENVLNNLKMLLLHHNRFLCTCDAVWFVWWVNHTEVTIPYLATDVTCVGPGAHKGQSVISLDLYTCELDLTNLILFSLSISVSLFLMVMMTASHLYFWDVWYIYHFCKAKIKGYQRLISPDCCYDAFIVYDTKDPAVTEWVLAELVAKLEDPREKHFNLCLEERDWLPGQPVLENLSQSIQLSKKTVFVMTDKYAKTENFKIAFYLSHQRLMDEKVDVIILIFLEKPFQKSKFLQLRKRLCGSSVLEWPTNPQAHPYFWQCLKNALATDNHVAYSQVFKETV
Summary of the method: (§1)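 Cells are seeded, given test compound across 0.05 nM to 50 μM, and after 30 min at room temperature stimulated with the receptor's agonist (gardiquimod 7.5 μM, R848 15.9 μM or ODN2006 5 nM for TLR7, 8, 9). SEAP is measured after 22 h at 37 °C.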

human TLR8 = target: T2, human TLR8 (Homo sapiens, UniProt Q9NR97); experiment: TLR8 inhibition reporter assay (HEK-Blue SEAP); conditions: HEK-Blue cells overexpressing human TLR8, stimulated with R848 15.9 μM, 22 hour incubation
T2 construct: host or cells: HEK-Blue cells
T2 sequence (Q9NR97 27-1041): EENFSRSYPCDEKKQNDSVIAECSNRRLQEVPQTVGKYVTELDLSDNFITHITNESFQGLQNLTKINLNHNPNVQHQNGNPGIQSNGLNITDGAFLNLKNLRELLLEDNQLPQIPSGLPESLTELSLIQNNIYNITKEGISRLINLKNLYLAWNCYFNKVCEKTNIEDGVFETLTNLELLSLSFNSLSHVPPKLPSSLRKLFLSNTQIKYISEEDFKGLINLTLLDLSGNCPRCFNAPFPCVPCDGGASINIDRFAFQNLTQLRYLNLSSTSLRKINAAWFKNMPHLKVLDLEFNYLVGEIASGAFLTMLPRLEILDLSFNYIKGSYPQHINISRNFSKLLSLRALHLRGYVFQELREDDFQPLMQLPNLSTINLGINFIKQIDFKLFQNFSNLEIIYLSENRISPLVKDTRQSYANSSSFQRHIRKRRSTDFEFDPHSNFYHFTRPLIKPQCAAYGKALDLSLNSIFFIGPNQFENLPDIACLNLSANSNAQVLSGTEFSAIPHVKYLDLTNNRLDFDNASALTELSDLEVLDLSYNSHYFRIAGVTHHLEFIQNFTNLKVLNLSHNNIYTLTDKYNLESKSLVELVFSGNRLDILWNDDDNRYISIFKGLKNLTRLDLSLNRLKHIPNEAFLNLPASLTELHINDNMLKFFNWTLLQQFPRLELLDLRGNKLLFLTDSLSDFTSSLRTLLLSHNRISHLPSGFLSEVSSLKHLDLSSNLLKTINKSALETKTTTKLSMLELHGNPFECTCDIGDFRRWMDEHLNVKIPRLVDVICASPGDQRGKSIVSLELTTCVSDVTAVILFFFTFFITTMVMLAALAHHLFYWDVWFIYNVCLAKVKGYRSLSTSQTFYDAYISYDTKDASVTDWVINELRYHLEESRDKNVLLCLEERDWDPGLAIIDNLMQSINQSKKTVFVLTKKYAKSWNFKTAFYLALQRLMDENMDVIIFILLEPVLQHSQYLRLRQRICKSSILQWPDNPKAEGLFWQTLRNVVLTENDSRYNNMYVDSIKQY
Summary of the method: as §1

human TLR9 = target: T3, human TLR9 (Homo sapiens, UniProt Q9NR96); experiment: TLR9 inhibition reporter assay (HEK-Blue SEAP); conditions: HEK-Blue cells overexpressing human TLR9, stimulated with ODN2006 5 nM, 22 hour incubation
T3 construct: host or cells: HEK-Blue cells
T3 sequence (Q9NR96 26-1032): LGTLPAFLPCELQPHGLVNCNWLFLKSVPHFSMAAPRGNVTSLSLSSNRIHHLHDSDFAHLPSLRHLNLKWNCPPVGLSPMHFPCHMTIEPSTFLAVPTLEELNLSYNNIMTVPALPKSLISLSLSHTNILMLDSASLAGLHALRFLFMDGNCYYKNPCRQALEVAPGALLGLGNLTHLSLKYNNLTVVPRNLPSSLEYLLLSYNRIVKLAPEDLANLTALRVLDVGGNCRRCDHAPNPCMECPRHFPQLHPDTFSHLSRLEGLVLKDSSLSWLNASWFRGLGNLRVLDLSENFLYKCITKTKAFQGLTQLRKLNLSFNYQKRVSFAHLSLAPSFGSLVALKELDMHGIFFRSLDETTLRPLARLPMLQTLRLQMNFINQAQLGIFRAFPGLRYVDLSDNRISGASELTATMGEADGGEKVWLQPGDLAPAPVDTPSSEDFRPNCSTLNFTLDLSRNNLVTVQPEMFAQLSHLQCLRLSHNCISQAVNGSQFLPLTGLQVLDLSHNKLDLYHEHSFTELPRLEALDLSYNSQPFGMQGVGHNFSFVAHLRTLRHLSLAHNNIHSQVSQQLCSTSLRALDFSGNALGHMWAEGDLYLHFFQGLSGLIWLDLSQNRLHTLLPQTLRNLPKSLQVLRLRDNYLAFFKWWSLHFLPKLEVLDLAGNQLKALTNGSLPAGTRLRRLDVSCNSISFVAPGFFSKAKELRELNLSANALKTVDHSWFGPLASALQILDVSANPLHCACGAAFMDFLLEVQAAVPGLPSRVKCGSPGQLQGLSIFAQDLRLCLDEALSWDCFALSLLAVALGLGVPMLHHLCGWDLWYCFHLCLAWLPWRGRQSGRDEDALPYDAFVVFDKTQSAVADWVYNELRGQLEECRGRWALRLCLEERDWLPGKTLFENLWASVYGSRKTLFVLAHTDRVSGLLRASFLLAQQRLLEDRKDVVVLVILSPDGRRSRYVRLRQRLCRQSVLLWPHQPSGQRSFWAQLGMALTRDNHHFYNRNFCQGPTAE
Summary of the method: as §1

| Structure (SMILES) | IC50 (human TLR7) | IC50 (human TLR8) | IC50 (human TLR9) |
| --- | --- | --- | --- |
| CCc1cc2c(C3CCN(CC(N)=O)CC3)n[nH]c2cc1-c1cc(C)c2ncnn2c1 [Example 92, 2-(4-(5-ethyl-6-(8-methyl-[1,2,4]triazolo[1,5-a]pyridin-6-yl)-1H-indazol-3-yl)piperidin-1-yl)acetamide] | 2.7 nM | 0.2 nM | 17200 nM |
| CCc1cc2c(C3CCC(NCC(=O)N(C)C)CC3)n[nH]c2cc1-c1cc(C)c2ncnn2c1 (stereo not drawn) [Example 95, 2-((4-(5-ethyl-6-(8-methyl-[1,2,4]triazolo[1,5-a]pyridin-6-yl)-1H-indazol-3-yl)cyclohexyl)amino)-N,N-dimethylacetamide] | 5.4 nM | 0.2 nM | 10800 nM |
| CCc1cc2c(C3CCC(NCC(=O)N(C)C)CC3)n[nH]c2cc1-c1cc(C)c2ncnn2c1 (stereo not drawn) [Example 96, 2-((4-(5-ethyl-6-(8-methyl-[1,2,4]triazolo[1,5-a]pyridin-6-yl)-1H-indazol-3-yl)cyclohexyl)amino)-N,N-dimethylacetamide] | 3 nM | 0.2 nM | 16000 nM |
| CCc1cc2c(C3CCN(CC(C)(C)O)CC3)n[nH]c2cc1-c1cc(C)c2ncnn2c1 [Example 101, 1-(4-(5-ethyl-6-(8-methyl-[1,2,4]triazolo[1,5-a]pyridin-6-yl)-1H-indazol-3-yl)piperidin-1-yl)-2-methylpropan-2-ol] | 5.6 nM | 0.2 nM | 12200 nM |
| Cc1cc(-c2cc3[nH]nc(C4CCNCC4)c3cc2C(C)C)cn2ncnc12 [Example 102, 6-(5-isopropyl-3-(piperidin-4-yl)-1H-indazol-6-yl)-8-methyl-[1,2,4]triazolo[1,5-a]pyridine] | 1 nM | 0.4 nM | 10900 nM |
| CCc1cc2c(C3CCN(C(=O)CCN(C)C)CC3)n[nH]c2cc1-c1cc(C)c2ncnn2c1 [Example 103, 3-(dimethylamino)-1-(4-(5-ethyl-6-(8-methyl-[1,2,4]triazolo[1,5-a]pyridin-6-yl)-1H-indazol-3-yl)piperidin-1-yl)propan-1-one] | 11 nM | 0.9 nM | 12200 nM |
| CCc1cc2c(C3CCN(CC#N)CC3)n[nH]c2cc1-c1cc(C)c2ncnn2c1 [Example 104, 2-(4-(5-ethyl-6-(8-methyl-[1,2,4]triazolo[1,5-a]pyridin-6-yl)-1H-indazol-3-yl)piperidin-1-yl)acetonitrile] | 6.9 nM | 0.8 nM | 13600 nM |
| CCc1cc2c(C3CCN(Cc4cn(C)nn4)CC3)n[nH]c2cc1-c1cc(C)c2ncnn2c1 [Example 105, 6-(5-ethyl-3-(1-((1-methyl-1H-1,2,3-triazol-4-yl)methyl)piperidin-4-yl)-1H-indazol-6-yl)-8-methyl-[1,2,4] triazolo[1,5-a]pyridine] | 5.1 nM | 0.1 nM | 8780 nM |
| CCc1cc2c(C3CCN(CCC#N)CC3)n[nH]c2cc1-c1cc(C)c2ncnn2c1 [Example 106, 3-(4-(5-ethyl-6-(8-methyl-[1,2,4]triazolo[1,5-a]pyridin-6-yl)-1H-indazol-3-yl)piperidin-1-yl)propanenitrile] | 7.2 nM | 0.2 nM | 39800 nM |
| CCc1cc2c(C3CCN(C(=O)CCCN(C)C)CC3)n[nH]c2cc1-c1cc(C)c2ncnn2c1 [Example 107, 4-(dimethylamino)-1-(4-(5-ethyl-6-(8-methyl-[1,2,4]triazolo[1,5-a]pyridin-6-yl)-1H-indazol-3-yl)piperidin-1-yl)butan-1-one] | 10.3 nM | 1.7 nM | 16700 nM |
| CCc1cc2c(C3CCN(CCC(F)(F)F)CC3)n[nH]c2cc1-c1cc(C)c2ncnn2c1 [Example 108, 6-(5-ethyl-3-(1-(3,3,3-trifluoropropyl)piperidin-4-yl)-1H-indazol-6-yl)-8-methyl-[1,2,4] triazolo[1,5-a]pyridine] | 5.6 nM | 0.2 nM | 23500 nM |
| CCc1cc(-c2cc(C)c3ncnn3c2)cc2[nH]nc(C3CCNCC3)c12 [Example 109, 6-(4-ethyl-3-(piperidin-4-yl)-1H-indazol-6-yl)-8-methyl-[1,2,4]triazolo[1,5-a]pyridine] | 2 nM | 2.6 nM | 1630 nM |
| CCc1cc(-c2cc(C)c3ncnn3c2)cc2[nH]nc(C3CCN(C(=O)CN(C)C)CC3)c12 [Example 110, 2-(dimethylamino)-1-(4-(4-ethyl-6-(8-methyl-[1,2,4]triazolo[1,5-a]pyridin-6-yl)-1H-indazol-3-yl)piperidin-1-yl)ethan-1-one] | 2.4 nM | 1.8 nM | 3860 nM |
| Cc1cc(-c2cc3[nH]nc(C4CCN(C(=O)CN(C)C)CC4)c3cc2C(C)C)cn2ncnc12 [Example 111, 2-(dimethylamino)-1-(4-(5-isopropyl-6-(8-methyl-[1,2,4]triazolo[1,5-a]pyridin-6-yl)-1H-indazol-3-yl)piperidin-1-yl)ethan-1-one] | 1.8 nM | 0.5 nM | 18600 nM |
